{
  "source": "paper PMC4707489",
  "about": "“A novel cell-penetrating peptide suppresses breast tumorigenesis by inhibiting β-catenin/LEF-1 signaling” (Scientific Reports, 2016)",
  "key": {"[1]": {"test_system": "MDA-MB-231-GFP cells in zebrafish embryos", "assay": "Zebrafish xenotransplantation, fluorescence density", "format": "in vivo, Danio rerio", "conditions": "MDA-MB-231-GFP co-injected with 100 μmol/l peptide into yolk sacs, between 24 hr and 48 hr, n = 20 per group, vs TAT-NLS-BLBD-6m", "text": "(§1) All animal experiments were approved by the Kaohsiung Medical University Institutional Animal Care and Use Committee (IACUC Approval No: 101156) and we accordance with the approved guidelines. Female nude mice (4–5 weeks old) were obtained from the National Laboratory Animal Center (Taipei, Taiwan). Xenograft tumor models were established by subcutaneous injection of 1 × 10^7 MCF-7-YFP or MDA-MB-231-GFP cells into the right flanks of mice. Mice with palpable tumors were randomly divided into three groups with five animals in each group. The mice were treated with control peptide, 0, 1 and 10 mg/kg TAT-NLS-BLBD-6 by intratumoral injection once every 2 days for 35 days. The fluorescence density was analyzed by an In Vivo Imaging System (IVIS) (Berthold Technologies, Bad Wildbad, Germany), and the tumor volumes (V) of nude mice were calculated by: V = length × diameter^2 × 0.5. For zebrafish xenotransplantation, zebrafishes (Danio rerio) were maintained at 28 °C in an air incubator, and 1 × 10^4 MCF-7-GFP or MDA-MB-231-GFP cells combined with TAT-NLS-BLBD-6 or control peptide were injected into the zebrafish embryos according to the previously described protocol. […]"}, "[2]": {"test_system": "MCF-7-GFP cells in zebrafish embryos", "assay": "Zebrafish xenotransplantation, fluorescence density", "format": "in vivo, Danio rerio", "conditions": "MCF-7-GFP co-injected with 100 μmol/l peptide into yolk sacs, between 24 hr and 48 hr, n = 20 per group, vs TAT-NLS-BLBD-6m", "text": "as §1"}, "[3]": {"assay": "Body weight and toxicity in xenograft models", "format": "in vivo, mouse", "text": "(§2) All animal experiments were approved by the Kaohsiung Medical University Institutional Animal Care and Use Committee (IACUC Approval No: 101156) and we accordance with the approved guidelines. Female nude mice (4–5 weeks old) were obtained from the National Laboratory Animal Center (Taipei, Taiwan). Xenograft tumor models were established by subcutaneous injection of 1 × 10^7 MCF-7-YFP or MDA-MB-231-GFP cells into the right flanks of mice. Mice with palpable tumors were randomly divided into three groups with five animals in each group. The mice were treated with control peptide, […], 1 and 10 mg/kg TAT-NLS-BLBD-6 by intratumoral injection once every 2 days for 35 days. The fluorescence density was analyzed by an In Vivo Imaging System (IVIS) (Berthold Technologies, Bad Wildbad, Germany), and the tumor volumes (V) of nude mice were calculated by: V = length × diameter^2 × 0.5. For zebrafish xenotransplantation, zebrafishes (Danio rerio) were maintained at 28 °C in an air incubator, and 1 × 10^4 MCF-7-GFP or MDA-MB-231-GFP cells combined with TAT-NLS-BLBD-6 or control peptide were injected into the zebrafish embryos according to the previously described protocol. The fluorescence density was measured 24 and 28 hr after injection using an epifluorescence microscope."}, "MDA-MB-231 cells": {"test_system": "MDA-MB-231 cells", "assay": "Cell cycle analysis, sub-G1 (propidium iodide, flow cytometry)", "format": "cell-based, human", "conditions": "MDA-MB-231, 100 μmol/l peptide, flow cytometry (Fig. 3a)", "experimental": "MCF-7 and MDA-MB-231 cells were plated in 6-well plates for 24 hr, and the medium was replaced with fresh culture medium containing 100 μmol/l peptide. After incubation for 24 hr, the cells were harvested by trypsinization and then fixed with 70% 4 °C ethanol. Intracellular DNA was stained with […] propidium iodide in the dark for 30 min at room temperature, and the percentages of sub-G1 cells were determined by flow cytometry (BD LSRII analyzer; BD Biosciences)."}, "[4]": {"test_system": "β-catenin/TCF4/LEF-1 downstream genes", "assay": "Q-PCR of 27 candidate genes in MCF-7", "format": "cell-based, human", "conditions": "MCF-7, 100 μmol/l, 48 hr post-transfection, relative to TAT-NLS-BLBD-6m (Fig. 6d)", "experimental": "(§3) Total RNA was isolated by Trizol reagent (Invitrogen, Carlsbad, CA, USA) and reverse transcribed to produce cDNA using the Deoxy + HiSpec reverse transcriptase kit (Yeastern, Taipei, Taiwan) according to the manufacturer instructions. Q-PCR was analyzed with SYBR Green Master Mix (Applied Biosystems, Stockholm, Sweden) and subjected to quantitation in an […]. The primers used for PCR are given in Supplementary Table S5 online. The Q-PCR data were normalized to 18S cDNA levels."}, "[5]": {"test_system": "β-catenin/TCF4/LEF downstream genes", "assay": "Q-PCR of downstream genes in ZR-75-30", "format": "cell-based, human", "conditions": "ZR-75-30, 100 μmol/l, 48 hr post-transfection, relative to TAT-NLS-BLBD-6m (Fig. 6g)", "experimental": "as §3"}, "[6]": {"test_system": "β-catenin/TCF4/LEF-1 downstream genes", "assay": "Q-PCR of 27 candidate genes in MDA-MB-231", "format": "cell-based, human", "conditions": "MDA-MB-231, 100 μmol/l, 48 hr post-transfection, relative to TAT-NLS-BLBD-6m (Fig. 6e)", "experimental": "as §3"}, "[7]": {"test_system": "MDA-MB-231-GFP cells xenograft", "assay": "Xenograft tumor growth in nude mice", "format": "in vivo, mouse", "conditions": "MDA-MB-231 xenograft, 1 and 10 mg/kg intratumoral once every 2 days for 35 days, n = 5 per group, vs control peptide", "text": "as §2"}, "[8]": {"test_system": "MCF-7-YFP cells xenograft", "assay": "Xenograft tumor growth in nude mice", "format": "in vivo, mouse", "conditions": "MCF-7 xenograft, 1 and 10 mg/kg intratumoral once every 2 days for 35 days, n = 5 per group, vs control peptide", "text": "as §2"}},
  "data": [
    {"substance": "H-TAT-NLS-ATDEMIPF-NH2 [TAT-NLS-BLBD-6]", "values": [
      {"measurement": "fluorescence density of transplanted tumor cells", "setting": "[1]", "value": "gradually reduced"},
      {"measurement": "fluorescence density of transplanted tumor cells", "setting": "[2]", "value": "gradually reduced"},
      {"measurement": "body weight", "setting": "[3]; nude mice, 1 and 10 mg/kg intratumoral once every 2 days for 35 days, vs control peptide", "value": "without having any effect on body weight"},
      {"measurement": "signs of toxicity", "setting": "[3]; nude mouse and zebrafish xenotransplantation models", "value": "no signs of toxicity"},
      {"measurement": "sub-G1 phase region (pro-apoptotic effect)", "setting": "MDA-MB-231 cells", "value": 43.10, "unit": "%"},
      {"measurement": "cell growth of normal mammary epithelial cells", "setting": "H184B5F5/M10 cells", "value": "did not inhibit the growth"},
      {"measurement": "gene expression of the 27 candidate genes", "setting": "[4]", "value": "decreased"},
      {"measurement": "expression of β-catenin/TCF4/LEF downstream genes", "setting": "[5]", "value": "inhibits"},
      {"measurement": "gene expression of the 27 candidate genes", "setting": "[6]", "value": "decreased"},
      {"measurement": "tumor growth", "setting": "[7]", "value": "inhibited tumor growth"},
      {"measurement": "tumor growth", "setting": "[8]", "value": "inhibited tumor growth"}
    ]}
  ]
}
